Common to all, as to type: cell-based
For one assay, the target named is T1, WEE1 (Homo sapiens, UniProt P30291+Q96SW2).
T1 construct: C-terminal ePL-tagged (DiscoverX, Fremont, CA) full-length WEE1 expression construct; expressed in transfected cells; host or cells: LentiX-HEK293T (Invitrogen), lentivirally transduced; the cells also over-express GSPT1-GN
Description: WEE1-ePL degradation assay (293T-LentiX, InCELL Hunter luminescence, 4 hr). As to conditions: for DC50: LentiX-HEK293T cells expressing WEE1-ePL, 4 hr incubation, read-out: 293T-LentiX WEE1-ePL Degradation 4 hr EC50; for 293T-LentiX WEE1-ePL Degradation 4 hr YMin (%): lower limit of fit, % of DMSO control signal remaining. The procedure, abridged: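 LentiX-HEK293T cells expressing C-terminally ePL-tagged full-length WEE1 plus non-degradable GSPT1-GN (G575N, N-terminal 158 aa truncated). Treated 4 h at 37 °C with a 10-point, 3-fold series from 1 or 10 µM, then read by InCELL Hunter luminescence. EC50 from four-parameter logistic fit, Ymax set by DMSO control.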

A further assay has as its system MKN45 cells. Description: MKN45 cell proliferation assay (Cell-Titer-Glo, 120 hr). As to conditions: for EC50: read-out: MKN45 Cell Prolif. 120 hr EC50; for MKN45 Cell Prolif. 120 hr YMin (%): minimal percent of DMSO control observed. The method in brief:
(§1)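 MKN45 (400/well) and MDA-MB-231 (800/well) cells in RPMI with 10% FBS were exposed to 10-point half-log doses from 1 or 10 uM (0.1% DMSO) for 120 h at 37 °C. Viability was read by CellTiter-Glo luminescence. EC50 came from blank-subtracted, %DMSO four-parameter fits, with Ymin-obs as the lowest %DMSO observed.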

For a further assay, the system named is MDA-MB-231 cells. Description: MDA-MB-231 cell proliferation assay (Cell-Titer-Glo, 120 hr). The settings on record: for EC50: read-out: MDA-MB 231 Cell Prolif. 120 hr EC50; for MDA-MB 231 Cell Prolif. 120 hr YMin (%): minimal percent of DMSO control observed. The method in brief: as §1
Where [1] appears, read: Homo sapiens, MDA-MB-231, 120 h.

Where two headings read alike, the source gives them in different places.

T1 sequence (P30291 whole entry): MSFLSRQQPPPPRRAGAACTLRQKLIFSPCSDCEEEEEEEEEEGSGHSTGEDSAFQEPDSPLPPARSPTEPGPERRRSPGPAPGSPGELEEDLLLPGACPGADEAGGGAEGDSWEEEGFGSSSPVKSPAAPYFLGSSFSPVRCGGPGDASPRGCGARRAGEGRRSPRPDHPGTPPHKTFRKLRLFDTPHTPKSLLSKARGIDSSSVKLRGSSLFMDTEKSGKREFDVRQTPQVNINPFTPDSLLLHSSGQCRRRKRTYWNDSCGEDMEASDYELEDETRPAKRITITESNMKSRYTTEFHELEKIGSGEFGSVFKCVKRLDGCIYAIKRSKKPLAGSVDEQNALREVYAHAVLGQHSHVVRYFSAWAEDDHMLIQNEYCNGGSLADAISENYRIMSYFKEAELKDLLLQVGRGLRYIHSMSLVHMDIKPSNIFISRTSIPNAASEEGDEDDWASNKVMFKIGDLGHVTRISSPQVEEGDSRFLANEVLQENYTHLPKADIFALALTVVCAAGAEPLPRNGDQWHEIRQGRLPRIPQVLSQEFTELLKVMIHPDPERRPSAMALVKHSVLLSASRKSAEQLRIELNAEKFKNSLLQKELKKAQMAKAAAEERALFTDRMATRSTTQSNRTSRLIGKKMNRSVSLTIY
T1 sequence (Q96SW2 whole entry): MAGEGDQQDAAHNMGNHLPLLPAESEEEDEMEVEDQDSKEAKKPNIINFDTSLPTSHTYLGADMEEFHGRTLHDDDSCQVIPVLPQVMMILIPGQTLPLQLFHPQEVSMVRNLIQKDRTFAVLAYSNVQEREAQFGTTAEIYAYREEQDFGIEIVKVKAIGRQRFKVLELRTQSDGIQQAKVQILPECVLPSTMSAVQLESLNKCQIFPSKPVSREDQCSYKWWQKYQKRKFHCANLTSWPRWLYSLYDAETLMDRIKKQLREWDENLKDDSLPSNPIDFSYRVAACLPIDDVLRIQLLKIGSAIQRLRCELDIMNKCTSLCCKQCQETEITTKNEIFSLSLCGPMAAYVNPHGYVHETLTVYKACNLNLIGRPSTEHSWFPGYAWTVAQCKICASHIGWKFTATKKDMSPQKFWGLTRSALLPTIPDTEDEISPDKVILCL
T1 sequence (Q16531 whole entry partner): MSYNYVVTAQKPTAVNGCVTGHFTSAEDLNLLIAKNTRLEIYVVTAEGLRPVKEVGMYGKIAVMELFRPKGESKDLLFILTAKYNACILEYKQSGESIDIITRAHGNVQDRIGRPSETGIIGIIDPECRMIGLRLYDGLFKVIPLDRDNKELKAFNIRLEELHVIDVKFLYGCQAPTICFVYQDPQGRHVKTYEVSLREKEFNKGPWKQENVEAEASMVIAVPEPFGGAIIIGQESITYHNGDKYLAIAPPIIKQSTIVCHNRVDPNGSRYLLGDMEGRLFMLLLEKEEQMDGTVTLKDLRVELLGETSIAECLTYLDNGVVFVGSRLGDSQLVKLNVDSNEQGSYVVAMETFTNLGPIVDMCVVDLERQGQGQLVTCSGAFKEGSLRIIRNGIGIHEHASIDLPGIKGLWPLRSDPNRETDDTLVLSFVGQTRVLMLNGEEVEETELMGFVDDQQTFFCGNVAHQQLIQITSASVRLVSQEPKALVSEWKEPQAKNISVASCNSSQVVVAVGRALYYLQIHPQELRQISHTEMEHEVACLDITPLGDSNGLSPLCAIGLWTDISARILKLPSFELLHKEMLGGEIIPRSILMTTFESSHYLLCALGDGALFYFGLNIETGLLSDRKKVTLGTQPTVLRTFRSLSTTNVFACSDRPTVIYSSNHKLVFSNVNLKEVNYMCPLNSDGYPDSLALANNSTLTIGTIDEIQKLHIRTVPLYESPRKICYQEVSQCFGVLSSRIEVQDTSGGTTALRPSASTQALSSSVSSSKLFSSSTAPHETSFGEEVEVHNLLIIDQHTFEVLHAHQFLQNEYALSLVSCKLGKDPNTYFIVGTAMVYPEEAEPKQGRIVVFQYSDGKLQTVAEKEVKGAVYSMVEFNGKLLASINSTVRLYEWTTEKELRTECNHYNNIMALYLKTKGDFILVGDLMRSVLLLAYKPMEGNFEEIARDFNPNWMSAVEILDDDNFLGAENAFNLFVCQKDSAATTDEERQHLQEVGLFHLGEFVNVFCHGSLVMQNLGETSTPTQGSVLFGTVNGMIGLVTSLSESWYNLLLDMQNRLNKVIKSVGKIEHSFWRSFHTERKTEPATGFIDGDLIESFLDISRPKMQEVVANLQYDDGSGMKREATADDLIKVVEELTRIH

As for `CC(C)(O)[C@@H]1CN(Cc2ccc3nc(C4CCOCC4)ccc3c2)C[C@H]1Oc1ccc2c(c1)CN([C@H]1CCC(=O)NC1=O)C2=O` (racemic) [Example 137, rel-(3S)-3-(5-((4-(2-hydroxypropan-2-yl)-1-((2-(tetrahydro-2H-pyran-4-yl)quinolin-6-yl)methyl)pyrrolidin-3-yl)oxy)-1-oxoisoindolin-2-yl)piperidine-2,6-dione], the DC50 on WEE1 is 12 nM. Also, the “293T-LentiX WEE1-ePL Degradation 4 hr YMin (%)” value at WEE1 came out at 40.9%. For the same compound, the EC50 with MKN45 cells (Homo sapiens, MKN-45, 120 h) stood at 233 nM; in the assay with MDA-MB-231 cells (setting [1]) it was 61 nM. Also, in the assay with MKN45 cells, the “MKN45 Cell Prolif. 120 hr YMin (%)” value was determined as 70.6%. The “MDA-MB 231 Cell Prolif. 120 hr YMin (%)” value in the assay with MDA-MB-231 cells worked out at 77.3%.

Turning to `COC[C@@H]1CN(Cc2cc(F)c3nc(CC(C)(C)O)ncc3c2)C[C@H]1Oc1ccc2c(c1)CN([C@H]1CCC(=O)NC1=O)C2=O` [Example 107, (3S)-3-(5-{[(3S,4S)-1-{[8-fluoro-2-(2-hydroxy-2-methylpropyl)quinazolin-6-yl]methyl}-4-(methoxymethyl)pyrrolidin-3-yl]oxy}-1-oxo-2,3-dihydro-1H-isoindol-2-yl)piperidine-2,6-dione], on WEE1, the DC50 stood at 8 nM and the “293T-LentiX WEE1-ePL Degradation 4 hr YMin (%)” value is reported as 19.5%. In addition, the concentration giving a half-maximal response (EC50) in the assay with MKN45 cells (Homo sapiens, MKN-45, 120 h) stood at 13 nM. The “MKN45 Cell Prolif. 120 hr YMin (%)” value in the assay with MKN45 cells was determined as 10.4%. Besides, in the assay with MDA-MB-231 cells (setting [1]), the EC50 was determined as 134 nM. Further, the “MDA-MB 231 Cell Prolif. 120 hr YMin (%)” value in the assay on MDA-MB-231 cells stood at 51.6%.

Consider `COC[C@@H]1CN(Cc2ccc3nc(C4CCOCC4)ccc3n2)C[C@H]1Oc1ccc2c(c1)CN([C@H]1CCC(=O)NC1=O)C2=O` [Example 128, (3S)-3-(5-{[(3S,4S)-4-(methoxymethyl)-1-{[6-(oxan-4-yl)-1,5-naphthyridin-2-yl]methyl}pyrrolidin-3-yl]oxy}-1-oxo-2,3-dihydro-1H-isoindol-2-yl)piperidine-2,6-dione], for which, on WEE1, the DC50 worked out at 1 nM and the “293T-LentiX WEE1-ePL Degradation 4 hr YMin (%)” value turned out to be 30.5%. In addition, the 50% effective concentration (EC50) in the assay with MKN45 cells (Homo sapiens, MKN-45, 120 h) was 11 nM. In addition, in the assay with MKN45 cells, the “MKN45 Cell Prolif. 120 hr YMin (%)” value is 18.2%. Besides, the EC50 in the assay on MDA-MB-231 cells (setting [1]) was found to be 127 nM. The “MDA-MB 231 Cell Prolif. 120 hr YMin (%)” value with MDA-MB-231 cells came out at 83.3%.

Consider `O=C1CC[C@H](N2Cc3cc(O[C@H]4CCN(Cc5ccc6nc([C@@H]7CCO[C@]8(CCOC8)C7)ccc6c5)C4)ccc3C2=O)C(=O)N1` (relative stereo) [Example 21, rel-(3S)-3-(5-(((3S)-1-((2-(2,6-dioxaspiro[4.5]decan-9-yl)quinolin-6-yl)methyl)pyrrolidin-3-yl)oxy)-1-oxoisoindolin-2-yl)piperidine-2,6-dione], for which, on WEE1, the DC50 turned out to be 1 nM and the “293T-LentiX WEE1-ePL Degradation 4 hr YMin (%)” value is 29.8%. In the assay on MKN45 cells (Homo sapiens, MKN-45, 120 h), the EC50 is 2 nM. The “MKN45 Cell Prolif. 120 hr YMin (%)” value with MKN45 cells is given as 9.9%. Further, in the assay with MDA-MB-231 cells (setting [1]), the EC50 was 129 nM. Also, in the assay on MDA-MB-231 cells, the “MDA-MB 231 Cell Prolif. 120 hr YMin (%)” value was 41.9%.

`COC[C@@H]1CN(Cc2cc(F)c3nc(N4C[C@H]5C[C@@H](C4)O5)ccc3c2)C[C@H]1Oc1ccc2c(c1)CN([C@H]1CCC(=O)NC1=O)C2=O` [Example 47, (S)-3-(5-(((3S,4S)-1-((2-((1R,5S)-6-oxa-3-azabicyclo[3.1.1]heptan-3-yl)-8-fluoroquinolin-6-yl)methyl)-4-(methoxymethyl)pyrrolidin-3-yl)oxy)-1-oxoisoindolin-2-yl)piperidine-2,6-dione]: on WEE1, the DC50 stood at 1 nM and the “293T-LentiX WEE1-ePL Degradation 4 hr YMin (%)” value worked out at 28.7%. Moreover, in the assay on MKN45 cells (Homo sapiens, MKN-45, 120 h), the 50% effective concentration (EC50) was 1 nM. The “MKN45 Cell Prolif. 120 hr YMin (%)” value in the assay on MKN45 cells is given as 9.8%. The 50% effective concentration (EC50) in the assay on MDA-MB-231 cells (setting [1]) was determined as 34 nM. For the same compound, the “MDA-MB 231 Cell Prolif. 120 hr YMin (%)” value in the assay with MDA-MB-231 cells is 30.0%.

Turning to `CN1CC2(CC(c3ccc4cc(CN5CC[C@H](Oc6ccc7c(c6)CN([C@H]6CCC(=O)NC6=O)C7=O)C5)ccc4n3)CO2)C1` (single isomer, unassigned) [Example 2, (S)-3-(5-(((S)-1-((2-((S*)-2-methyl-5-oxa-2-azaspiro[3.4]octan-7-yl)quinolin-6-yl)methyl)pyrrolidin-3-yl)oxy)-1-oxoisoindolin-2-yl)piperidine-2,6-dione], at WEE1, the DC50 was found to be 339 nM and the “293T-LentiX WEE1-ePL Degradation 4 hr YMin (%)” value came out at 33.4%. Besides, in the assay with MKN45 cells, the “MKN45 Cell Prolif. 120 hr YMin (%)” value came out at 28.1% and the EC50 came out at 53 nM. In addition, in the assay on MDA-MB-231 cells, the “MDA-MB 231 Cell Prolif. 120 hr YMin (%)” value turned out to be 73.8% and the 50% effective concentration (EC50) came to 234 nM.

Take `COC[C@@H]1CN(Cc2ccc3cc(N4CCOCC4)cnc3c2)C[C@H]1Oc1ccc2c(c1)CN([C@H]1CCC(=O)NC1=O)C2=O` [Example 102, (3S)-3-(5-{[(3S,4S)-4-(methoxymethyl)-1-{[3-(morpholin-4-yl)quinolin-7-yl]methyl}pyrrolidin-3-yl]oxy}-1-oxo-2,3-dihydro-1H-isoindol-2-yl)piperidine-2,6-dione]: at WEE1, the DC50 was found to be 3 nM and the “293T-LentiX WEE1-ePL Degradation 4 hr YMin (%)” value was 43.7%. The EC50 with MKN45 cells (Homo sapiens, MKN-45, 120 h) came out at 145 nM. In the assay with MKN45 cells, the “MKN45 Cell Prolif. 120 hr YMin (%)” value came out at 49.6%. Besides, in the assay on MDA-MB-231 cells (setting [1]), the EC50 was determined as 1020 nM. In the assay with MDA-MB-231 cells, the “MDA-MB 231 Cell Prolif. 120 hr YMin (%)” value was 90.7%.

For the compound `COC[C@@H]1CN(Cc2ccc3c(ccn3C(=O)C3CCOCC3)c2)C[C@H]1Oc1ccc2c(c1)CN([C@H]1CCC(=O)NC1=O)C2=O` [Example 25, (3S)-3-(5-{[(3S,4S)-4-(methoxymethyl)-1-{[1-(oxane-4-carbonyl)-1H-indol-5-yl]methyl}pyrrolidin-3-yl]oxy}-1-oxo-2,3-dihydro-1H-isoindol-2-yl)piperidine-2,6-dione], at WEE1, the DC50 amounted to 2 nM and the “293T-LentiX WEE1-ePL Degradation 4 hr YMin (%)” value was determined as 39.0%. The concentration giving a half-maximal response (EC50) with MKN45 cells (Homo sapiens, MKN-45, 120 h) came to 35 nM. Further, the “MKN45 Cell Prolif. 120 hr YMin (%)” value in the assay on MKN45 cells is given as 25.4%. Further, the EC50 in the assay with MDA-MB-231 cells (setting [1]) is 128 nM. In the assay with MDA-MB-231 cells, the “MDA-MB 231 Cell Prolif. 120 hr YMin (%)” value turned out to be 80.7%.

On to `COC[C@@H]1CN(Cc2ccc3nc(C4CCOC(C)(C)C4)ccc3c2)C[C@H]1Oc1ccc2c(c1)CN([C@H]1CCC(=O)NC1=O)C2=O` (stereo partly drawn) [Example 84, (3S)-3-(5-{[(3S,4S)-1-{[2-(2,2-dimethyloxan-4-yl)quinolin-6-yl]methyl}-4-(methoxymethyl)pyrrolidin-3-yl]oxy}-1-oxo-2,3-dihydro-1H-isoindol-2-yl)piperidine-2,6-dione], for which the “293T-LentiX WEE1-ePL Degradation 4 hr YMin (%)” value on WEE1 is reported as 30.8%. The EC50 is 1 nM in the assay on MKN45 cells (Homo sapiens, MKN-45, 120 h) and 83 nM in the assay on MDA-MB-231 cells (setting [1]). Besides, the “MKN45 Cell Prolif. 120 hr YMin (%)” value with MKN45 cells turned out to be 10.5%. For the same compound, the “MDA-MB 231 Cell Prolif. 120 hr YMin (%)” value with MDA-MB-231 cells is listed as 21.0%.

With `COC[C@@H]1CN(Cc2ccc3nc(C4CCN(C(C)=O)C(C)(C)C4)ncc3c2)C[C@H]1Oc1ccc2c(c1)CN([C@H]1CCC(=O)NC1=O)C2=O` (stereo partly drawn) [Example 82, (3S)-3-(5-{[(3S,4S)-1-{[2-(1-acetyl-2,2-dimethylpiperidin-4-yl)quinazolin-6-yl]methyl}-4-(methoxymethyl)pyrrolidin-3-yl]oxy}-1-oxo-2,3-dihydro-1H-isoindol-2-yl)piperidine-2,6-dione], at WEE1, the DC50 stood at 2 nM and the “293T-LentiX WEE1-ePL Degradation 4 hr YMin (%)” value is listed as 27.5%. Further, the EC50 in the assay on MKN45 cells (Homo sapiens, MKN-45, 120 h) amounted to 2 nM. Moreover, the “MKN45 Cell Prolif. 120 hr YMin (%)” value in the assay on MKN45 cells stood at 9.0%. In addition, the 50% effective concentration (EC50) in the assay on MDA-MB-231 cells (setting [1]) stood at 26 nM. The “MDA-MB 231 Cell Prolif. 120 hr YMin (%)” value in the assay on MDA-MB-231 cells stood at 17.9%.

The values above are taken from patent publication US20250197374A1, “WEE1 DEGRADING COMPOUNDS AND USES THEREOF” (BRISTOL-MYERS SQUIBB COMPANY, priority 2023, published 2025).
